Laboratory results: patent publication US9579322B2, “Methods for treating neurologic disorders” (EIP Pharma, LLC, priority 2014, dated 2017)

Assays:
[1] = test system: PSD95; assay: PSD95 ELISA of cortex and hippocampus extracts; assay type: in vivo, Fischer rats
Protocol: The primary objective of this study was to investigate whether pre-treatment with compound VX-745 alleviates cognitive defects in aged rats. Plasma concentration of VX-745 was determined with LC-MS/MS at the end of the study from samples collected 1 hour post dosing. In addition, protein levels of PSD95 in ventral cortex and hippocampus, and levels of IL-1β in the hippocampus were analyzed by specific ELISA assays to evaluate the potential anti-inflammatory effects of VX-745 in the brain
One hour after the last vehicle or VX-745 morning dosing, the animals (10 per dosing group) were deeply anesthetized with pentobarbital and blood samples were collected by cardiac puncture. 500 μl of blood was collected into EDTA microtubes, centrifuged, and plasma collected. The brains were perfused with heparinized saline, and the brains were collected. Right hemisphere was post-fixed by immersion in 4% PFA in 0.1 M PB for 24 h. After a brief wash with phosphate buffer, the hemisphere was cryoprotected in 30% sucrose in PB for 2-3 days, after which it was frozen on liquid nitrogen and stored at −80° C. for optional future immunohistochemical analysis. […]
Cortex and hippocampal soluble extracts were analyzed for PSD95 content using an ELISA kit (Cusabio Biotech Ltd., #CSB-EL006938RA, Lot 031154387), while the levels of Il-1β were analyzed only from hippocampus (R&D Systems, #RLB00, Lot 308544).

[2] = test system: cognitive defects in aged rats; assay: Morris water maze in aged rats; assay type: in vivo, Fischer rats
Protocol: Altogether 60 female aged (20-24 months) and 15 young adult female Fischer Rats (2-3 months) were used for the experiment. Rats were treated with oral gavage twice-a-day until the sampling (23 days) with vehicle or VX-745 0.5, 1.5 or 4.5 mg/kg. Learning and memory deficits were analyzed with Morris water maze (MWM) one week after starting the treatment.
All animal experiments were carried out according to the National Institute of Health (NIH) guidelines for the care and use of laboratory animals, and approved by the National Animal Experiment Board, Finland. Altogether 60 female aged (20-24 months) and 15 young (2-3 months) adult female Fischer rats (Charles River, France) were used for the experiment. Animals were housed at a standard temperature (22±1° C.) and in a light-controlled environment (lights on from 7 am to 8 pm) with ad libitum access to food and water. Animals were grouped as follows: • Group 1: 15 Aged Rats treated with Vehicle p.o. BID • Group 2: 15 Aged Rats treated with VX-745 (0.5 mg/kg) p.o. BID • Group 3: 15 Aged Rats treated with VX-745 (1.5 mg/kg) p.o. BID • Group 4: 15 Aged Rats treated with VX-745 (4.5 mg/kg) p.o. BID • Group 5: 15 Young adult control rats treated with Vehicle p.o. BID Drug Delivery and Rat Identification
The rats were assigned to the treatment groups equally based on their body weight and visible platform pre-training performance to ensure that both good and poor learners were equally present in all treatment groups. The treatment was given by oral gavage twice-a-day until the sampling. Vehicle was 1% Pluronic F108 and dosing volume was 5 ml/kg. Administration of vehicles and test compounds was done at 7-9 am and 3-5 pm on the pre-testing phase. On the days of behavioral testing, the treatment was given minimum 1 hour prior to first test trial. Test compounds were formulated and stored according to the instructions provided by the sponsor. The rats were marked accordingly with permanent marker to the tail. Records were kept about treatment groups and daily treatment times.
Water maze task was originally designed by Morris et al. (J Neurosci Methods. 1984; 11: 194 47-60). Testing was performed in a large dark-colored tank (200 cm in diameter) filled with clear water at a temperature of 25.0±1.0° C. A submerged platform (square platform: 10×10 cm; 1.5 cm below water surface) was placed in the middle of the of the NW quadrant. The starting locations, which were labeled N, NE, E, SE, S, SW, W, NW, were located arbitrarily on the pool rim. The rats were lowered into the pool with their nose pointing toward the wall at one of the starting points. The release point adjacent to platform location (NW) was not used.
Before the compound treatment was started, the visible platform pre-training was performed to determine whether any non-cognitive performance impairments (e.g. visual impairments and/or swimming difficulties) were present, which might affect performance on the place or probe trials. After the visible platform pre-training was completed, the data was analyzed and the rats were assigned to the different treatment groups based on their pre-training performance. This procedure was performed to ensure that each treatment group consisted equally both good and poor performers in the cued version of the water maze task.
Acquisition training—weeks 1 (days 8-11) & 2 (days 15-18): After completion of cued trials, acquisition (place) trials were executed to determine the rat's ability to learn the spatial relationship between distant cues and the submerged escape platform which remained in the same location for all place trials. The starting points were randomized (NW is not used). The rats received four trials (15 min apart, 60 s maximum for each trial) each day for 4 days/week. Latency and path length (distance) were evaluated.
Probe trial (day 19): A single probe trial was conducted 24 hours after the last place trial to evaluate memory retention. […]

VX-745
PSD95 protein levels ([1]; 1.5 mg/kg): no evident effects | PSD95 protein levels ([1]; 4.5 mg/kg versus aged vehicle-treated group, p=0.063 Mann-Whitney): statistical trend towards higher levels of PSD95 | MWM distance at day 17 ([2]; 1.5 mg/kg p.o. BID versus vehicle-treated aged rats, p=0.0.019): statistically significant better performance | MWM change in latency from first test day to last test day ([2]; 1.5 mg/kg p.o. BID versus vehicle-treated aged rats, p=0.007): performed significantly better | MWM change in distance from first test day to last test day ([2]; 1.5 mg/kg p.o. BID versus vehicle-treated aged rats, p=0.012): performed significantly better | MWM latency at day 17 ([2]; 1.5 mg/kg p.o. BID versus vehicle-treated aged rats, p=0.013): statistically significant better performance | MWM latency and distance, comparison of dose groups ([2]; 1.5 mg/kg p.o. BID, about equal to young vehicle-treated rats on Day 17): greatest effect | MWM swim time and distance over sequential testing ([2]; VX-745-treated aged rats, p.o. BID): greater progressive shortening of swim time and distance | MWM probe trial parameters (day 19) ([2]; time in target quadrant and annulus, platform crosses): no positive or negative effects
